According to patent US10072011B2, “Substituted bridged urea analogs as sirtuin modulators” (GlaxoSmithKline Intellectual Property (No.2) Limited, priority 2014, dated 2018):
Where two headings read alike, the source gives them in different places.

Target: T1, SIRT1 (Homo sapiens, UniProt Q96EB6)
T1 sequence (Q96EB6 1-747): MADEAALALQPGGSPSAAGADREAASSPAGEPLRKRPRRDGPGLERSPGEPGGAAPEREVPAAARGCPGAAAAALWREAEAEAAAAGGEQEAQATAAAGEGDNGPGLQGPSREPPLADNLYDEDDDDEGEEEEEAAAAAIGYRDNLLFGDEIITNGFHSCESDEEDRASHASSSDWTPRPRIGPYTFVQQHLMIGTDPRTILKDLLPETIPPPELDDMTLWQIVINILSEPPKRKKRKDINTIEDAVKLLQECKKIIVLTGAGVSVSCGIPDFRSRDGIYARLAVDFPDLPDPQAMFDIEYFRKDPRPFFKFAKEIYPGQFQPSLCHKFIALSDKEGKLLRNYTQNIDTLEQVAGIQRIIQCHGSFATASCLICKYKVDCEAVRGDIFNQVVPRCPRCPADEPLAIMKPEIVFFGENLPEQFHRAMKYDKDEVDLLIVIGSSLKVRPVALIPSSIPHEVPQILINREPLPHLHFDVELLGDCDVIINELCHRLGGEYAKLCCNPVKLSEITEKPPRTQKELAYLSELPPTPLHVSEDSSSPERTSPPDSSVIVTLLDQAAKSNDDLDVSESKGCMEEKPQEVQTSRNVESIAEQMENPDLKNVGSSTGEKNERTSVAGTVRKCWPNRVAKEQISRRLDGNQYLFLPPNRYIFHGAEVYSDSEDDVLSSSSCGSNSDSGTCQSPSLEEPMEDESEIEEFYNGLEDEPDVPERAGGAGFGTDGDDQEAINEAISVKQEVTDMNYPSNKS
Assay: Trp mass spectrometry assay of SIRT1 activation (Ac-R-H-K-K(Ac)-W-NH2 peptide)
Format: biochemical
Settings: for Emax: 25 min, read-out: TRP MAX RESP (percent maximum fold activation)
In short: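 N-terminal His-tagged human SIRT1, expressed in BL21(DE3) and purified, was incubated 25 min with an acetylated Trp peptide and NAD plus test compound at varying concentrations, then quenched with formic acid. OAADPR or deacetylated peptide was quantified by mass spectrometry versus compound-free control; EC1.5 is the concentration giving 50% activity increase, with percent maximum activation.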

[1] = Trp peptide 0.5 μM, 120 μM βNAD+, 10 nM SIRT1, 25 min at 25° C., relative to control (100%)
[2] = Trp peptide 0.5 μM, 120 μM βNAD+, 10 nM SIRT1, 25 min at 25° C.

Compound | Emax [1] | TRP Activity (EC1.5, concentration of test compound that results in 150% activation of SIRT1) [2] | Emax
C[C@@H](NC(=O)c1ccc2c(n1)N(C(=O)Nc1cc3cn[nH]c3cn1)[C@H]1CCN2C1)C(F)(F)F [Example 170, (4S)—N5-(1H-pyrazolo[3,4-c]pyridin-5-yl)-N7-((R)-1,1,1-trifluoropropan-2-yl)-3,4-dihydro-1,4-methanopyrido[2,3-b][1,4]diazepine-5,7(2H)-dicarboxamide] | > 150% | A (EC1.5<1 μM) | –
O=C(NCc1ccccc1)c1ccc2c(n1)N(C(=O)Nc1cc(OC[C@H](O)CO)ccn1)[C@H]1CCN2C1 [Example 171, (4S)—N7-benzyl-N5-(4-((R)-2,3-dihydroxypropoxy)pyridin-2-yl)-3,4-dihydro-1,4-methanopyrido[2,3-b][1,4]diazepine-5,7(2H)-dicarboxamide] | > 150% | A (EC1.5<1 μM) | –
CC(C)c1ccc(NC(=O)N2c3nc(C(=O)NCC(F)(F)F)ccc3N3CC[C@H]2C3)nc1 [Example 172, (4S)—N5-(5-isopropylpyridin-2-yl)-N7-(2,2,2-trifluoroethyl)-3,4-dihydro-1,4-methanopyrido[2,3-b][1,4]diazepine-5,7(2H)-dicarboxamide] | > 150% | A (EC1.5<1 μM) | –
C[C@@H](NC(=O)c1ccc2c(n1)N(C(=O)Nc1ncc(OC[C@H](O)CO)cn1)[C@H]1CCN2C1)C(F)(F)F [Example 173, (4S)—N5-(5-((R)-2,3-dihydroxypropoxy)pyrimidin-2-yl)-N7-((R)-1,1,1-trifluoropropan-2-yl)-3,4-dihydro-1,4-methanopyrido[2,3-b][1,4]diazepine-5,7(2H)-dicarboxamide] | > 150% | A (EC1.5<1 μM) | –
O=C(NCC(F)(F)F)c1ccc2c(n1)N(C(=O)Nc1ccc(C3CC3)cn1)[C@H]1CCN2C1 [Example 174, (4S)—N5-(5-cyclopropylpyridin-2-yl)-N7-(2,2,2-trifluoroethyl)-3,4-dihydro-1,4-methanopyrido[2,3-b][1,4]diazepine-5,7(2H)-dicarboxamide] | > 150% | A (EC1.5<1 μM) | –
Cc1c[nH]c2nc(NC(=O)N3c4nc(C(=O)N[C@H](C)C(F)(F)F)ccc4N4CC[C@H]3C4)ncc12 [Example 175, (4S)—N5-(5-methyl-7H-pyrrolo[2,3-d]pyrimidin-2-yl)-N7-((R)-1,1,1-trifluoropropan-2-yl)-3,4-dihydro-1,4-methanopyrido[2,3-b][1,4]diazepine-5,7(2H)-dicarboxamide] | > 150% | A (EC1.5<1 μM) | –
Cc1c[nH]c2nc(NC(=O)N3c4nc(C(=O)NCC(F)(F)F)ccc4N4CC[C@H]3C4)ncc12 [Example 176, (4S)—N5-(5-methyl-7H-pyrrolo[2,3-d]pyrimidin-2-yl)-N7-(2,2,2-trifluoroethyl)-3,4-dihydro-1,4-methanopyrido[2,3-b][1,4]diazepine-5,7(2H)-dicarboxamide] | – | A (EC1.5<1 μM) | > 150%
C[C@@H](NC(=O)c1ccc2c(n1)N(C(=O)Nc1ncc(OC[C@@H](O)CO)cn1)[C@H]1CCN2C1)C(F)(F)F [Example 177, (4S)—N5-(5-((S)-2,3-dihydroxypropoxy)pyrimidin-2-yl)-N7-((R)-1,1,1-trifluoropropan-2-yl)-3,4-dihydro-1,4-methanopyrido[2,3-b][1,4]diazepine-5,7(2H)-dicarboxamide] | > 150% | B (EC1.5 1-25 μM) | –
C=CCNC(=O)c1ccc2c(n1)N(C(=O)Nc1cc(OC[C@H](O)CO)ccn1)[C@H]1CCN2C1 [Example 178, (4S)—N7-allyl-N5-(4-((R)-2,3-dihydroxypropoxy)pyridin-2-yl)-3,4-dihydro-1,4-methanopyrido[2,3-b][1,4]diazepine-5,7(2H)-dicarboxamide] | > 150% | B (EC1.5 1-25 μM) | –
C=CCNC(=O)c1ccc2c(n1)N(C(=O)Nc1ccccn1)[C@H]1CCN2C1 [Example 179, (4S)—N7-allyl-N5-(pyridin-2-yl)-3,4-dihydro-1,4-methanopyrido[2,3-b][1,4]diazepine-5,7(2H)-dicarboxamide] | > 150% | A (EC1.5<1 μM) | –
O=C(NCCO)c1ccnc(NC(=O)N2c3nc(C(=O)NCC(F)(F)F)ccc3N3CC[C@H]2C3)c1 [Example 180, (4S)—N5-(4-((2-hydroxyethyl)carbamoyl)pyridin-2-yl)-N7-(2,2,2-trifluoroethyl)-3,4-dihydro-1,4-methanopyrido[2,3-b][1,4]diazepine-5,7(2H)-dicarboxamide] | > 150% | A (EC1.5<1 μM) | –
C[C@@H](NC(=O)c1ccc2c(n1)N(C(=O)Nc1cc3cc[nH]c3cn1)[C@H]1CCN2C1)C(F)(F)F [Example 181, (4S)—N5-(1H-pyrrolo[2,3-c]pyridin-5-yl)-N7-((R)-1,1,1-trifluoropropan-2-yl)-3,4-dihydro-1,4-methanopyrido[2,3-b][1,4]diazepine-5,7(2H)-dicarboxamide] | > 150% | A (EC1.5<1 μM) | –
C[C@@H](NC(=O)c1ccc2c(n1)N(C(=O)Nc1cc(-n3ccnn3)ccn1)[C@H]1CCN2C1)C(F)(F)F [Example 182, (4S)—N5-(4-(1H-1,2,3-triazol-1-yl)pyridin-2-yl)-N7-((R)-1,1,1-trifluoropropan-2-yl)-3,4-dihydro-1,4-methanopyrido[2,3-b][1,4]diazepine-5,7(2H)-dicarboxamide] | > 150% | A (EC1.5<1 μM) | –
CC(F)(F)CNC(=O)c1ccc2c(n1)N(C(=O)Nc1cc(OC[C@H](O)CO)ccn1)[C@H]1CCN2C1 [Example 183, (4S)—N7-(2,2-difluoropropyl)-N5-(4-((R)-2,3-dihydroxypropoxy)pyridin-2-yl)-3,4-dihydro-1,4-methanopyrido[2,3-b][1,4]diazepine-5,7(2H)-dicarboxamide] | > 150% | B (EC1.5 1-25 μM) | –
O=C(N[C@H](c1ccccc1)C(F)(F)F)c1ccc2c(n1)N(C(=O)Nc1cc(OC[C@H](O)CO)ccn1)[C@H]1CCN2C1 [Example 184, (4S)—N5-(4-((R)-2,3-dihydroxypropoxy)pyridin-2-yl)-N7-((R)-2,2,2-trifluoro-1-phenylethyl)-3,4-dihydro-1,4-methanopyrido[2,3-b][1,4]diazepine-5,7(2H)-dicarboxamide] | > 150% | A (EC1.5<1 μM) | –
Cn1ccc(=O)c(NC(=O)N2c3nc(C(=O)NCC(F)(F)F)ccc3N3CC[C@H]2C3)c1 [Example 185, (4S)—N5-(1-methyl-4-oxo-1,4-dihydropyridin-3-yl)-N7-(2,2,2-trifluoroethyl)-3,4-dihydro-1,4-methanopyrido[2,3-b][1,4]diazepine-5,7(2H)-dicarboxamide] | – | A (EC1.5<1 μM) | > 150%
C[C@@H](NC(=O)c1ccc2c(n1)N(C(=O)Nc1cc(OCCN)ccn1)[C@H]1CCN2C1)C(F)(F)F [Example 186, (4S)—N5-(4-(2-aminoethoxy)pyridin-2-yl)-N7-((R)-1,1,1-trifluoropropan-2-yl)-3,4-dihydro-1,4-methanopyrido[2,3-b][1,4]diazepine-5,7(2H)-dicarboxamide] | > 150% | B (EC1.5 1-25 μM) | –
O=C(NCc1cccc(F)c1)c1ccc2c(n1)N(C(=O)Nc1cc(OC[C@H](O)CO)ccn1)[C@H]1CCN2C1 [Example 187, (4S)—N5-(4-((R)-2,3-dihydroxypropoxy)pyridin-2-yl)-N7-(3-fluorobenzyl)-3,4-dihydro-1,4-methanopyrido[2,3-b][1,4]diazepine-5,7(2H)-dicarboxamide] | > 150% | A (EC1.5<1 μM) | –
C[C@@H](NC(=O)c1ccc2c(n1)N(C(=O)Nc1cn(C)ccc1=O)[C@H]1CCN2C1)C(F)(F)F [Example 188, (4S)—N5-(1-methyl-4-oxo-1,4-dihydropyridin-3-yl)-N7-((R)-1,1,1-trifluoropropan-2-yl)-3,4-dihydro-1,4-methanopyrido[2,3-b][1,4]diazepine-5,7(2H)-dicarboxamide] | > 150% | B (EC1.5 1-25 μM) | –
